Measured values reported in ChEMBL document CHEMBL1128917, “1-O-, 2-O- and 3-O--glycosyl-sn-glycerols: Structure - anti-tumor-promoting activity relationship” (1996).

What was measured:
Assay type in all cases: functional, Homo sapiens
Raji [1] = experiment: Tested in vitro for inhibitory activity against TPA induced Epstein-Barr virus antigen activation in Raji cells (10 mol) for positive control
Raji [2] = experiment: Tested in vitro for inhibitory activity against TPA induced Epstein-Barr virus antigen activation in Raji cells (1000 mol) for viability
Raji [3] = experiment: Tested in vitro for inhibitory activity against TPA induced Epstein-Barr virus antigen activation in Raji cells (100 mol) for positive control
Raji [4] = experiment: Tested in vitro for inhibitory activity against TPA induced Epstein-Barr virus antigen activation in Raji cells (500 mol) for positive control
Raji [5] = experiment: Tested in vitro for inhibitory activity against TPA induced Epstein-Barr virus antigen activation in Raji cells (1000 mol) for positive control

SMILES | EBV antigen activation, % of positive control (Raji [1]) | Viability (Raji [2]) | EBV antigen activation, % of positive control (Raji [3]) | EBV-EA activation (% of positive control) (Raji [4]) | EBV antigen activation, % of positive control (Raji [5])
CO[C@@H]1O[C@H](CO)[C@H](O)[C@H](O)[C@H]1O | 93.7% | 80% | 76.5% | 43.9% | 20.3%
CO[C@@H]1O[C@H](CO)C(O)C(O)[C@H]1O (single isomer, unassigned) | 100% | 70% | 70.7% | 54.1% | 22.8%
OCC(O)CO[C@@H]1O[C@@H](CO)[C@@H](O)[C@H](O)[C@@H]1O (stereo in doubt; form 1) | 82.5% | 70% | 62.4% | 20.7% | 0%
CC(=O)OCC(CO)O[C@@H]1O[C@@H](CO)[C@@H](O)[C@H](O)[C@@H]1O (stereo in doubt; form 1) | 94.7% |  | 71.5% | 32.9% | 
OCC(CO)O[C@@H]1O[C@@H](CO)[C@H](O)[C@H](O)[C@@H]1O (stereo in doubt; form 1) |  | 70% | 81% | 45.8% | 
OCC(O)CO[C@@H]1O[C@@H](CO)[C@H](O)[C@H](O)[C@@H]1O (stereo in doubt; form 1) | 79.1% |  | 58.2% | 16.5% | 
OCC(O)CO[C@@H]1O[C@@H](CO)[C@@H](O)[C@H](O)[C@@H]1O (stereo in doubt; form 2) | 90.4% |  | 68.9% | 27.4% | 
CC(=O)OCC(CO)O[C@@H]1O[C@@H](CO)[C@@H](O)[C@H](O)[C@@H]1O (stereo in doubt; form 2) | 100% | 70% | 77.3% | 36.6% | 0%
OCC(CO)O[C@@H]1O[C@@H](CO)[C@H](O)[C@H](O)[C@@H]1O (stereo in doubt; form 2) | 100% | 80% | 88.1% | 17.5% | 0%
OCC(O)CO[C@@H]1O[C@@H](CO)[C@H](O)[C@H](O)[C@@H]1O (stereo in doubt; form 2) | 87.5% | 70% | 64.6% | 25.8% | 0%
